Source: patent US9328085B2, “Heterocyclic compounds and expansion agents for hematopoietic stem cells” (NISSAN CHEMICAL INDUSTRIES, LTD., priority 2009, dated 2016)

Experiments:
[1] = tested on: SRC; assay: Transplantation of cell culture into immunodeficient (NOD/SCID) mice, SRC assay (Assay Example 4); format: in vivo; details: CD34^+ cells cultured 1 week with 3 μg/mL Compound No. 60, SCF and Flt-3, 8 weeks after transplantation, vs uncultured CD34^+ cells, FIG. 2
Experimental: Human cord blood-derived CD34^+ cells were cultured for 1 week in StemSpan SFEM (StemCell Technologies) containing SCF (Peprotech) at a final concentration of 100 ng/mL and Flt-3 (Wako Pure Chemical Industries) at a final concentration of 100 ng/mL in the presence of TPO (Peprotech) at a final concentration of 20 ng/mL or Compound No. 60 at a final concentration of 3 μg/mL in the same manner as in Assay Example 1. The cell culture were transplanted into at least five 7- to 8-week-old NOD/SCID mice by tail vein injection at 4×10^4 cells/mouse in terms of the initial number of CD34^+ cells after a sublethal dose of irradiation (2.5 Gy). Eight weeks after the transplantation, the mice were killed, and the bone marrow cells were collected from both thighbones. Subsequently, the bone marrow cells were stained with a human CD45 antibody (APC, Becton, Dickinson and Company), then washed with PBS(−) containing 2% (v/v) FBS and stained with propidium iodide (Sigma-Aldrich Japan) added to a final concentration of 5 μg/mL. The stained cells were analyzed with a flow cytometry to determined the proportion of human CD45^+ cells in the bone marrow cells. […]

[2] = tested on: HPP-CFC colonies; assay: Expansion of HPP-CFU, blood cell colony forming assay (Assay Example 3); format: cell-based, human; details: cells cultured with 3 μg/mL compound, 500 cells/dish, 12 days; None = 6
Experimental: The effects of Compounds No. 60 and No. 61 of the present invention on hematopoietic progenitor cells were measured by blood cell colony forming assay. The liquid cell cultures obtained in the presence of Compounds No. 60 or No. 61 at a final concentration of 3 μg/mL in the same manner as in Assay Example 1 were poured into 3.5-cm Petri dishes with MethoCult GF H4435 culture medium (StemCell Technologies) at 500 cells/dish and incubated in a CO2 incubator (5% CO2, 37° C.) for 12 days. The number of HPP-CFC colonies in each plate was counted under a microscope routinely. The assay was carried out at least in triplicate, and the numbers of HPP-CFC colonies were averaged.

[3] = tested on: CD34^+CD38^− cells; assay: Expansion of CD34+CD38- cells using human cord blood-derived CD34+ cells (Assay Example 1); format: cell-based; details: for Comparison with TPO: CD34^+CD38^− cells; for Expansion efficiency (CD34^+CD38^− cells): 100 ng/mL SCF, 7 days, based on the number of CD34^+CD38^− cells in the absence of compound
Experimental: (§1) Human cord blood-derived CD34^+ cells were purchased from Lonza and plated on a 24-well plate (Corning) (10000 cells/1 mL/well). As the culture medium, StemSpan SFEM (StemCell Technologies) containing 100 ng/mL SCF (Wako Pure Chemical Industries) was used, and one of Compounds No. 1 to 72 dissolved in dimethyl sulfoxide was added in an amount of 0.1% (v/v) to a final concentration of 1 or 3 μg/mL. As a positive control, TPO (PeproTech) was used at a final concentration of 10 ng/mL.
(§2) After the cells were incubated in liquid culture at 37° C. for 7 days in a CO2 incubator (5% CO2), the number of viable cells was counted by trypan blue assay. The number of CD34^+CD38^− cells was calculated as follows. After the incubation, the cells in the liquid culture was stained with a CD34 antibody (APC, Becton, Dickinson and Company) and a CD38 antibody (PE, Becton, Dickinson and Company), then washed with PBS(−) containing 2% (v/v) FBS and stained with propidium iodide (Sigma-Aldrich Japan) added to a final concentration of 5 μg/mL. The stained cells were analyzed with a BD FACSCANTO™ II flow cytometer (Becton, Dickinson and Company) to determined the proportions of CD34^+ cells and CD34^+CD38^− cells, which was multiplied by the number of viable cells to calculate the numbers of CD34^+ cells and CD34^+CD38^− cells.
(§3) The expansion efficiencies in the presence of 1 or 3 μg/mL of compounds based on the number of CD34^+ cells in the absence of them are shown in Tables 3-1 and 3-2 on a scale of A for expansion efficiencies of 6 or greater, B for expansion efficiencies of at least 4 and less than 6, and C for expansion efficiencies of at least 2 and less than 4. The expansion efficiencies in the presence of 1 or 3 μg/mL of compounds based on the number of CD34^+CD38^− cells in the absence of them are shown in Tables 4-1 and 4-2 on a scale of A for expansion efficiencies of 10 or greater, B for expansion efficiencies of at least 5 and less than 10, and C for expansion efficiencies of at least 3 and less than 5. Further, in Table 3, the compounds with an expansion efficiency twice or more greater than that of TPO are marked with O.

[4] = tested on: CD34^+ cells; assay: Expansion of CD34+ cells using human cord blood-derived CD34+ cells (Assay Example 1); format: cell-based; details: 100 ng/mL SCF, 7 days, based on the number of CD34^+ cells in the absence of compound
Experimental: as §1, §2, §3

[5] = 3 μg/mL compound vs TPO 10 ng/mL

SMILES | SRC expanding effect (proportion of human CD45^+ cells in bone marrow) [1] | Number of HPP-CFC colonies [2] | Comparison with TPO [3, 5] | Expansion efficiency (CD34^+CD38^− cells) ([3]; 3 μg/mL compound) | Expansion efficiency (CD34^+ cells) ([4]; 3 μg/mL compound) | Comparison with TPO ([3]; 1 μg/mL compound vs TPO 10 ng/mL) | Expansion efficiency (CD34^+CD38^− cells) ([3]; 1 μg/mL compound) | Expansion efficiency (CD34^+ cells) ([4]; 1 μg/mL compound)
CC(=NNC(=O)c1ccc(C(=O)NCc2ccc(C(=O)NCCOCCO)cc2)s1)c1csc(-c2ccc(C(C)(C)C)cc2)c1O [Compound No. 60] | excellent SRC expanding effect | 25 | ∘ | A (A for expansion efficiencies of 10 or greater) | B (B for expansion efficiencies of at least 4 and less than 6) | – | – | –
CC(=NNC(=O)c1ccc(C(=O)NCc2ccc(C(=O)NCCOCCO)cc2)s1)c1csc(-c2ccc(Br)cc2)c1O [compound 61] | – | 14 | ∘ | A (A for expansion efficiencies of 10 or greater) | A (A for expansion efficiencies of 6 or greater) | – | – | –
CC(=NNC(=O)c1ccc(C(=O)NCc2ccc(CC(N)=O)cc2)s1)c1csc(-c2ccc(Cl)c(Cl)c2)c1O [compound 66] | – | – | – | A (A for expansion efficiencies of 10 or greater) | C (C for expansion efficiencies of at least 2 and less than 4) | – | – | –
CC(=NNC(=O)c1ccc(C(=O)NCc2ccc(CC(N)=O)cc2)s1)c1csc(-c2ccc(C(C)(C)C)cc2)c1O [compound 67] | – | – | – | – | – | ∘ | A (A for expansion efficiencies of 10 or greater) | B (B for expansion efficiencies of at least 4 and less than 6)
CC(=NNC(=O)c1ccc(C(=O)NCc2ccc(CC(N)=O)cc2)s1)c1csc(-c2ccc(Br)cc2)c1O [compound 68] | – | – | ∘ | A (A for expansion efficiencies of 10 or greater) | A (A for expansion efficiencies of 6 or greater) | – | – | –
CC(=NNC(=O)c1ccc(C(=O)NCc2ccc(CC(N)=O)cc2)s1)c1csc(-c2ccc(C(F)(F)F)cc2)c1O [compound 69] | – | – | – | A (A for expansion efficiencies of 10 or greater) | A (A for expansion efficiencies of 6 or greater) | – | – | –
CC(=NNC(=O)c1ccc(C(=O)NCc2ccc(CC(N)=O)cc2)s1)c1csc(-c2ccc(Cl)cc2)c1O [compound 70] | – | – | ∘ | A (A for expansion efficiencies of 10 or greater) | A (A for expansion efficiencies of 6 or greater) | – | – | –
CC(=NNC(=O)c1ccc(C(=O)NCc2ccc(CC(N)=O)cc2)s1)c1csc(-c2ccc(OC(F)(F)F)cc2)c1O [compound 71] | – | – | – | A (A for expansion efficiencies of 10 or greater) | A (A for expansion efficiencies of 6 or greater) | – | – | –
COc1ccc(-c2scc(C(C)=NNC(=O)c3ccc(C(=O)NCc4ccc(CC(N)=O)cc4)s3)c2O)cc1 [compound 72] | – | – | – | B (B for expansion efficiencies of at least 5 and less than 10) | B (B for expansion efficiencies of at least 4 and less than 6) | – | – | –
